# Test results reported in patent publication US9999222B2, “Herbicidal combination comprising azines” (BASF SE, priority 2014, dated 2018).
# Values joined by “and” are separate entries in the source; they are usually repeats but may differ in a detail not shown here. Equal entries are not always repeated. Where two headings read alike, the source gives them in different places.
# Experiments:
# Experiment in all cases: Greenhouse test, pre-emergence treatment
# KCHSC = format: in vivo, Kochia scoparia; conditions: pre-emergence
# Outline: (§1)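 Seeds were sown in loamy sand with about 3.0% humus, and compounds in water were sprayed immediately after sowing, alone or as combinations formulated as 10% emulsion concentrates. Plants grew under hoods until rooted, at 10-25 °C or 20-35 °C by species, for 2 to 4 weeks. Damage was scored 0-100 (100 = no emergence or complete destruction), and Colby expected values were E=X+Y−(X·Y/100).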
# ECHCG = format: in vivo, Echinocloa crus-galli
# Outline: as §1
# EPHHL = format: in vivo, Euphorbia heterophylla; conditions: pre-emergence
# Outline: as §1
# GERPU = format: in vivo, Geranium pusillum; conditions: pre-emergence
# Outline: as §1
# COMBE = format: in vivo, Commelina benghalensis; conditions: pre-emergence
# Outline: as §1
# BRADC = format: in vivo, Brachiaria decumbens; conditions: pre-emergence, pre-emergence
# Outline: as §1
# AVEFA = format: in vivo, Avena fatua; conditions: Avena fatua, pre-emergence, 480 h, pre-emergence, read-out: observed % activity 20 DAT
# Outline: as §1
# ALOMY = format: in vivo, Alopecurus myosuroides; conditions: pre-emergence, pre-emergence
# Outline: as §1
# LOLMU = format: in vivo, Lolium multiflorum; conditions: pre-emergence, pre-emergence
# Outline: as §1
# CENCY = format: in vivo, Centaurea cyanus
# POLCO = format: in vivo, Polygonum convolvulus; conditions: pre-emergence
# Outline: as §1
# PHACA = format: in vivo, Phalaris canariensis; conditions: Phalaris canariensis, pre-emergence, 480 h, pre-emergence, read-out: observed % activity 20 DAT
# Outline: as §1
# SIDRH = format: in vivo, Sida rhombifolia; conditions: pre-emergence
# Outline: as §1
# GALAP = format: in vivo, Galium aparine; conditions: pre-emergence
# Outline: as §1
# ELEIN = format: in vivo, Eleusine indica
# Outline: as §1
# [1] = Bassia scoparia, 480 h, 4 g ai/ha, read-out: observed % activity 20 DAT
# [2] = Bassia scoparia, 480 h, 8 g ai/ha, read-out: observed % activity 20 DAT
# [3] = Echinochloa crus-galli, 480 h, 4 g ai/ha, read-out: observed % activity 20 DAT
# [4] = Euphorbia heterophylla, 480 h, 8 g ai/ha, read-out: observed % activity 20 DAT
# [5] = Commelina benghalensis, 480 h, 4 g ai/ha, read-out: observed % activity 20 DAT
# [6] = Alopecurus myosuroides, 480 h, 2 g ai/ha, read-out: observed % activity 20 DAT
# [7] = Lolium multiflorum, 480 h, 2 g ai/ha, read-out: observed % activity 20 DAT
# [8] = Lolium multiflorum, 480 h, 8 g ai/ha, read-out: observed % activity 20 DAT
# [9] = Fallopia convolvulus, 480 h, 4 g ai/ha, read-out: observed % activity 20 DAT
# [10] = Sida rhombifolia, 480 h, 8 g ai/ha, read-out: observed % activity 20 DAT
# [11] = Galium aparine, 480 h, 4 g ai/ha, read-out: observed % activity 20 DAT
# [12] = Galium aparine, 480 h, 8 g ai/ha, read-out: observed % activity 20 DAT
structure (smiles),measurement,setting,value
"Nc1nc(Nc2c(F)c(F)cc(F)c2F)nc(C2(F)CCCC2)n1 [compound 9, 6-(1-fluorocyclopentyl)-N4-(2,3,5,6-tetrafluorophenyl)-1,3,5-triazine-2,4-diamine]",pest or weed control at 4 g/ha,KCHSC; [1],50%
same,pest or weed control at 8 g/ha,KCHSC; [2],85%
same,inhibition at 7 g/ha,"KCHSC; Bassia scoparia, 480 h, KCHSC, individual, use rate 7 g ai/ha, read-out: observed % activity 20 DAT",75%
same,inhibition at 8 g/ha,"KCHSC; Bassia scoparia, 480 h, KCHSC, individual, use rate 8 g ai/ha, read-out: observed % activity 20 DAT",90%
same,inhibition at 16 g/ha,"KCHSC; Bassia scoparia, 480 h, KCHSC, individual, use rate 16 g ai/ha, read-out: observed % activity 20 DAT",90%
same,inhibition at 4 g/ha,KCHSC; [1],70%
same,inhibition at 8 g/ha,KCHSC; [2],75%
same,inhibition at 16 g/ha,"KCHSC; Bassia scoparia, 480 h, 16 g ai/ha, read-out: observed % activity 20 DAT",90%
same,observed % activity 20 DAT,"KCHSC; KCHSC, individual, use rate 16 g ai/ha",80%
same,observed % activity 20 DAT,KCHSC; 16 g ai/ha,80%
same,observed % activity 20 DAT,ECHCG; 2 g ai/ha,70%
same,inhibition at 2 g/ha,"ECHCG; Echinochloa crus-galli, 480 h, 2 g ai/ha, read-out: observed % activity 20 DAT",75%
same,inhibition at 4 g/ha,ECHCG; [3],90%
same,pest or weed control at 4 g/ha,ECHCG; [3],85%
same,observed % activity 20 DAT,"EPHHL; EPHHL, individual, use rate 8 g ai/ha",30%
same,inhibition at 8 g/ha,"EPHHL; Euphorbia heterophylla, 480 h, EPHHL, individual, use rate 8 g ai/ha, read-out: observed % activity 20 DAT",25%
same,inhibition at 16 g/ha,"EPHHL; Euphorbia heterophylla, 480 h, EPHHL, individual, use rate 16 g ai/ha, read-out: observed % activity 20 DAT",15%
same,pest or weed control at 4 g/ha,"EPHHL; Euphorbia heterophylla, 480 h, 4 g ai/ha, read-out: observed % activity 20 DAT",25%
same,inhibition at 8 g/ha,EPHHL; [4],10%
same,pest or weed control at 8 g/ha,EPHHL; [4],10%
same,inhibition at 16 g/ha,"EPHHL; Euphorbia heterophylla, 480 h, 16 g ai/ha, read-out: observed % activity 20 DAT",20%
same,observed % activity 20 DAT,"GERPU; GERPU, individual, use rate 16 g ai/ha",30% and 60%
same,inhibition at 8 g/ha,"GERPU; Geranium pusillum, 480 h, GERPU, individual, use rate 8 g ai/ha, read-out: observed % activity 20 DAT",40%
same,pest or weed control at 4 g/ha,"GERPU; Geranium pusillum, 480 h, 4 g ai/ha, read-out: observed % activity 20 DAT",20%
same,inhibition at 8 g/ha,"GERPU; Geranium pusillum, 480 h, 8 g ai/ha, read-out: observed % activity 20 DAT",40%
same,observed % activity 20 DAT,GERPU; 16 g ai/ha,60% and 30%
same,observed % activity 20 DAT,"COMBE; COMBE, individual, use rate 16 g ai/ha",35% and 15%
same,pest or weed control at 4 g/ha,COMBE; [5],25%
same,pest or weed control at 8 g/ha,"COMBE; Commelina benghalensis, 480 h, 8 g ai/ha, read-out: observed % activity 20 DAT",65%
same,inhibition at 8 g/ha,"COMBE; Commelina benghalensis, 480 h, COMBE, individual, use rate 8 g ai/ha, read-out: observed % activity 20 DAT",20%
same,inhibition at 4 g/ha,COMBE; [5],25%
same,inhibition at 16 g/ha,"COMBE; Commelina benghalensis, 480 h, 16 g ai/ha, read-out: observed % activity 20 DAT",20%
same,observed % activity 20 DAT,COMBE; 16 g ai/ha,35%
same,inhibition at 2 g/ha,"BRADC; Urochloa decumbens, 480 h, 2 g ai/ha, read-out: observed % activity 20 DAT",20%
same,inhibition at 4 g/ha,"BRADC; Urochloa decumbens, 480 h, 4 g ai/ha, read-out: observed % activity 20 DAT",55%
same,inhibition at 8 g/ha,"BRADC; Urochloa decumbens, 480 h, 8 g ai/ha, read-out: observed % activity 20 DAT",35%
same,observed % activity 20 DAT,BRADC; 4 g ai/ha,40%
same,inhibition at 2 g/ha,AVEFA; 2 g ai/ha,0%
same,inhibition at 8 g/ha,AVEFA; 8 g ai/ha,0%
same,inhibition at 2 g/ha,ALOMY; [6],75%
same,pest or weed control at 2 g/ha,ALOMY; [6],75%
same,pest or weed control at 8 g/ha,"ALOMY; Alopecurus myosuroides, 480 h, 8 g ai/ha, read-out: observed % activity 20 DAT",98%
same,observed % activity 20 DAT,ALOMY; 2 g ai/ha,70%
same,observed % activity 20 DAT,ALOMY; 4 g ai/ha,45%
same,inhibition at 2 g/ha,LOLMU; [7],0%
same,pest or weed control at 2 g/ha,LOLMU; [7],0%
same,inhibition at 8 g/ha,LOLMU; [8],75%
same,pest or weed control at 8 g/ha,LOLMU; [8],75%
same,observed % activity 20 DAT,LOLMU; 8 g ai/ha,80%
same,observed % activity 20 DAT,CENCY; 4 g ai/ha,40%
same,observed % activity 20 DAT,CENCY; 8 g ai/ha,20%
same,pest or weed control at 4 g/ha,POLCO; [9],20%
same,pest or weed control at 8 g/ha,"POLCO; Fallopia convolvulus, 480 h, 8 g ai/ha, read-out: observed % activity 20 DAT",80%
same,inhibition at 8 g/ha,"POLCO; Fallopia convolvulus, 480 h, POLCO, individual, use rate 8 g ai/ha, read-out: observed % activity 20 DAT",50%
same,inhibition at 16 g/ha,"POLCO; Fallopia convolvulus, 480 h, POLCO, individual, use rate 16 g ai/ha, read-out: observed % activity 20 DAT",70%
same,inhibition at 4 g/ha,POLCO; [9],20%
same,inhibition at 16 g/ha,"POLCO; Fallopia convolvulus, 480 h, 16 g ai/ha, read-out: observed % activity 20 DAT",80%
same,observed % activity 20 DAT,POLCO; 8 g ai/ha,75%
same,inhibition at 2 g/ha,PHACA; 2 g ai/ha,0%
same,pest or weed control at 2 g/ha,PHACA; 2 g ai/ha,0%
same,inhibition at 8 g/ha,PHACA; 8 g ai/ha,50%
same,pest or weed control at 8 g/ha,PHACA; 8 g ai/ha,70%
same,observed % activity 20 DAT,"SIDRH; SIDRH, individual, use rate 8 g ai/ha",15%
same,observed % activity 20 DAT,"SIDRH; SIDRH, individual, use rate 16 g ai/ha",55%
same,pest or weed control at 4 g/ha,"SIDRH; Sida rhombifolia, 480 h, 4 g ai/ha, read-out: observed % activity 20 DAT",10%
same,pest or weed control at 8 g/ha,SIDRH; [10],10%
same,inhibition at 8 g/ha,"SIDRH; Sida rhombifolia, 480 h, SIDRH, individual, use rate 8 g ai/ha, read-out: observed % activity 20 DAT",25%
same,inhibition at 8 g/ha,SIDRH; [10],25%
same,inhibition at 16 g/ha,"SIDRH; Sida rhombifolia, 480 h, 16 g ai/ha, read-out: observed % activity 20 DAT",30%
same,observed % activity 20 DAT,"GALAP; GALAP, individual, use rate 8 g ai/ha",50%
same,pest or weed control at 4 g/ha,GALAP; [11],55%
same,pest or weed control at 8 g/ha,GALAP; [12],90%
same,inhibition at 8 g/ha,"GALAP; Galium aparine, 480 h, GALAP, individual, use rate 8 g ai/ha, read-out: observed % activity 20 DAT",70%
same,inhibition at 16 g/ha,"GALAP; Galium aparine, 480 h, GALAP, individual, use rate 16 g ai/ha, read-out: observed % activity 20 DAT",60%
same,inhibition at 4 g/ha,GALAP; [11],55%
same,inhibition at 8 g/ha,GALAP; [12],70%
same,inhibition at 16 g/ha,"GALAP; Galium aparine, 480 h, 16 g ai/ha, read-out: observed % activity 20 DAT",60%
same,observed % activity 20 DAT,ELEIN; 2 g ai/ha,95%
same,inhibition at 2 g/ha,"ELEIN; Eleusine indica, 480 h, 2 g ai/ha, read-out: observed % activity 20 DAT",95%
same,inhibition at 4 g/ha,"ELEIN; Eleusine indica, 480 h, 4 g ai/ha, read-out: observed % activity 20 DAT",98%
